Reference: patent US20110311485A1, “1,2,4-OXADIAZOLE DERIVATIVES AND THEIR THERAPEUTIC USE” (ALMIRALL S.A., priority 2008, published 2011)

The molecules below were run against S1P1 receptors (Homo sapiens, UniProt P21453) (assay: 35S-GTPyS binding assay). Details: 35S-GTPyS binding on membranes; compound 0.1 nM-10 μM; 10 μM S1P as 100% maximum efficacy; 90 min at room temperature.
Sequence of S1P1 receptors (P21453 whole entry): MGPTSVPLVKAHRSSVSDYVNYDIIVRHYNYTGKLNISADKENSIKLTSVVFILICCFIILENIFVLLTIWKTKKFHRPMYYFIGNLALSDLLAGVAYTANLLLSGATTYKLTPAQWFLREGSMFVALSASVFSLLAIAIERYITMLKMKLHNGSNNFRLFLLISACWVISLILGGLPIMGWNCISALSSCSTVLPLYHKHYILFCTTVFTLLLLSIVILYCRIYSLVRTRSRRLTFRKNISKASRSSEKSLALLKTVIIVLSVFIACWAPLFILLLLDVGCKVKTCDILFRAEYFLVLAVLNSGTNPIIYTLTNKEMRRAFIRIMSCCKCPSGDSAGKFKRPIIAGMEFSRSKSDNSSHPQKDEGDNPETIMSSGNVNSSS
Assay type: biochemical
Method: The effect of the compounds was measured using a 35S-GTPyS binding assay. Briefly, membranes were incubated in a buffer containing 20 mM HEPES pH 7.4, 100 mM NaCl, 10 mM MgCl2, 10 μM GDP, 50 μg/ml saponin and 0.2% fatty acid-free BSA at various concentrations (0.1 nM-10 μM) and 0.1 nM 35S-GTPyS. 10 μM S1P was used as 100% maximum efficacy. The assay was incubated for 90 min at room temperature with gentle mixing, and terminated by filtrating the reaction mixture through GF/C filter plates using the Manifold Filtration System. The filters were immediately washed with sodium phosphate pH 7.4 buffers. After drying the filter plates scintillant liquid were added to each well and 35S-GTPyS binding was measured on a Trilux Scintillation Counter.
Molecule `CCn1nc(-c2nc(-c3ccc(S(N)(=O)=O)cc3)no2)c2c1CC(C)(C)CC2` [Example 5, 4-(5-(1-Ethyl-6,6-dimethyl-4,5,6,7-tetrahydro-1H-indazol-3-yl)-1,2,4-oxadiazol-3-yl)benzenesulfonamide] has an EC50 of 40 nM. In the case of `CCn1nc(-c2nc(-c3ccc(N4CCN(CCC(=O)O)CC4)cc3)no2)c2c1CC(C)(C)CC2` [Example 8, 3-(4-(4-(5-(1-ethyl-6,6-dimethyl-4,5,6,7-tetrahydro-1H-indazol-3-yl)-1,2,4-oxadiazol-3-yl)phenyl)piperazin-1-yl)propanoic Acid], the EC50 is reported as 17 nM. Work on `CC1(C)CCc2c(-c3nc(-c4ccc(C(N)=O)cc4)no3)nn(Cc3ccccc3)c2C1` [Example 21, 4-(5-(1-Benzyl-6,6-dimethyl-4,5,6,7-tetrahydro-1H-indazol-3-yl)-1,2,4-oxadiazol-3-yl)benzamide] yielded an EC50 of 18 nM. Work on `CCn1nc(-c2nc(-c3ccncc3C)no2)c2c1CC(C)(C)CC2` [Example 36, 5-(1-Ethyl-6,6-dimethyl-4,5,6,7-tetrahydro-1H-indazol-3-yl)-3-(3-methylpyridin-4-yl)-1,2,4-oxadiazole] yielded an EC50 of 48 nM. For `CCn1nc(-c2nc(-c3ccc(CCC(=O)O)cc3C)no2)c2c1CC(C)(C)CC2` [Example 42, 3-(4-(5-(1-Ethyl-6,6-dimethyl-4,5,6,7-tetrahydro-1H-indazol-3-yl)-1,2,4-oxadiazol-3-yl)-3-methylphenyl)propanoic Acid], the EC50 was 16 nM. Work on `CCn1nc(-c2nc(-c3ccc(CCN)cc3C)no2)c2c1CC(C)(C)CC2` [Example 48, 2-(4-(5-(1-Ethyl-6,6-dimethyl-4,5,6,7-tetrahydro-1H-indazol-3-yl)-1,2,4-oxadiazol-3-yl)-3-methylphenyl)ethanamine] yielded an EC50 of 8 nM. In the case of `CCc1cc(-c2noc(-c3nn(CC(F)(F)F)c4c3CCC(C)(C)C4)n2)c(C)nc1O` [Example 56, 5-(5-(6,6-Dimethyl-1-(2,2,2-trifluoroethyl)-4,5,6,7-tetrahydro-1H-indazol-3-yl)-1,2,4-oxadiazol-3-yl)-3-ethyl-6-methylpyridin-2-ol], the EC50 is reported as 31 nM. For `CCn1nc(-c2nc(-c3ccc4c(c3)CCC(NCC(=O)O)C4)no2)c2c1CC(C)(C)CC2` (stereo not drawn) [Example 68, 2-(6-(5-(1-Ethyl-6,6-dimethyl-4,5,6,7-tetrahydro-1H-indazol-3-yl)-1,2,4-oxadiazol-3-yl)-1,2,3,4-tetrahydronaphthalen-2-ylamino)ethanoic Acid], the EC50 was 1.9 nM. With `Cc1cc(-c2noc(-c3noc4c3CCC(C)(C)C4)n2)cc(C)c1CCNCC(=O)O` [Example 74] the EC50 was 1.7 nM. `Cc1cc(-c2noc(-c3nn(C)c4c3CCC(C)(C)C4)n2)cc(C)c1CCN1CC(C(=O)O)C1` [Example 91, 1-(2,6-Dimethyl-4-(5-(1,6,6-trimethyl-4,5,6,7-tetrahydro-1H-indazol-3-yl)-1,2,4-oxadiazol-3-yl)phenethyl)azetidine-3-carboxylic Acid] was tested, and the EC50 was 16 nM. With `CCn1nc(-c2nc(-c3ccc(S(=O)(=O)NCCC(=O)O)c(Cl)c3)no2)c2c1CC(C)(C)CC2` [Example 97, 3-(2-Chloro-4-(5-(1-ethyl-6,6-dimethyl-4,5,6,7-tetrahydro-1H-indazol-3-yl)-1,2,4-oxadiazol-3-yl)phenylsulfonamido)propanoic Acid] the EC50 was 26 nM. `CCn1nc(-c2noc(-c3ccncc3)n2)c2c1CC(C)(C)CC2` [Example 99, 3-(1-Ethyl-6,6-dimethyl-4,5,6,7-tetrahydro-1H-indazol-3-yl)-5-(pyridin-4-yl)-1,2,4-oxadiazole] gave an EC50 of 146 nM. `Cc1cc(-c2noc(-c3nn(C)c4c3CCC(C)(C)C4)n2)cc(C)c1CCNC(C)(C)C` [Example 104, N-(2-{2,6-dimethyl-4-[5-(1,6,6-trimethyl-4,5,6,7-tetrahydro-1H-indazol-3-yl)-1,2,4-oxadiazol-3-yl]phenyl}ethyl)-2-methylpropan-2-amine] gave an EC50 of 8.5 nM. `CCn1nc(-c2nc(-c3ccc(S(=O)(=O)NCCC(=O)O)cc3C)no2)c2c1CC(C)(C)CC2` [Example 117, N-({4-[5-(1-ethyl-6,6-dimethyl-4,5,6,7-tetrahydro-1H-indazol-3-yl)-1,2,4-oxadiazol-3-yl]-3-methylphenyl}sulfonyl)-beta-alanine] gave an EC50 of 11.7 nM. `CCn1nc(-c2nc(-c3cc(C)c(CC(N)=O)c(C)c3)no2)c2c1CC(C)(C)CC2` [Example 137, 2-{4-[5-(1-ethyl-6,6-dimethyl-4,5,6,7-tetrahydro-1H-indazol-3-yl)-1,2,4-oxadiazol-3-yl]-2,6-dimethylphenyl}acetamide] gave an EC50 of 3.6 nM. With `CCc1cc(-c2noc(-c3nn(CC)c4c3CCC(C)(C)C4)n2)c(C)nc1CCN` [Example 138, (2-{3-ethyl-5-[5-(1-ethyl-6,6-dimethyl-4,5,6,7-tetrahydro-1H-indazol-3-yl)-1,2,4-oxadiazol-3-yl]-6-methylpyridin-2-yl}ethyl)amine] the EC50 was 13 nM. For `Cc1cc(-c2nnc(-c3nn(C)c4c3CCC(C)(C)C4)s2)cc(C)c1OCCN` [Example 139, (2-{2,6-dimethyl-4-[5-(1,6,6-trimethyl-4,5,6,7-tetrahydro-1H-indazol-3-yl)-1,3,4-thiadiazol-2-yl]phenoxy}ethyl)amine], the EC50 was 7.3 nM. Molecule `Cc1cc(-c2noc(-c3nn(C)c4c3CCC(C)(C)C4)n2)cc(C)c1CCO` [Example 141, 2-{2,6-dimethyl-4-[5-(1,6,6-trimethyl-4,5,6,7-tetrahydro-1H-indazol-3-yl)-1,2,4-oxadiazol-3-yl]phenyl}ethanol] has an EC50 of 4.6 nM. In the case of `Cc1cc(-c2noc(-c3nn(C)c4c3CCC(C)(C)C4)n2)cc(C)c1CCN1CCC(CC(=O)O)CC1` [Example 143, [1-(2-{2,6-dimethyl-4-[5-(1,6,6-trimethyl-4,5,6,7-tetrahydro-1H-indazol-3-yl)-1,2,4-oxadiazol-3-yl]phenyl}ethyl)piperidin-4-yl]acetic acid], the EC50 is reported as 5.1 nM. `Cc1cc(-c2noc(-c3nn(C)c4c3CCC(C)(C)C4)n2)cc(C)c1CCN[C@@H](C)C(=O)O` [Example 146, N-(2-{2,6-dimethyl-4-[5-(1,6,6-trimethyl-4,5,6,7-tetrahydro-1H-indazol-3-yl)-1,2,4-oxadiazol-3-yl]phenyl}ethyl)-L-alanine] gave an EC50 of 1.4 nM. In the case of `CCn1nc(-c2nc(-c3ccc(CCNCC(=O)O)c(C(F)(F)F)c3)no2)c2c1CC(C)(C)CC2` [Example 162, N-{2-[4-[5-(1-ethyl-6,6-dimethyl-4,5,6,7-tetrahydro-1H-indazol-3-yl)-1,2,4-oxadiazol-3-yl]-2-(trifluoromethyl)phenyl]ethyl}glycine], the EC50 is reported as 0.56 nM. `Cc1cc(-c2noc(-c3noc4c3CCC(C)(C)C4)n2)cc(C)c1CC(O)CO` (stereo not drawn) [Example 170, 3-{4-[5-(6,6-dimethyl-4,5,6,7-tetrahydro-1,2-benzisoxazol-3-yl)-1,2,4-oxadiazol-3-yl]-2,6-dimethylphenyl}propane-1,2-diol] was tested, and the EC50 was 8.3 nM. Molecule `CCn1nc(-c2nc(-c3cccc4[nH]ccc34)no2)c2c1CC(C)(C)CC2` [Example 187, 5-(1-ethyl-6,6-dimethyl-4,5,6,7-tetrahydro-1H-indazol-3-yl)-3-(1H-indol-4-yl)-1,2,4-oxadiazole] has an EC50 of 10 nM. For `Cn1nc(-c2nnc(-c3ccc(CCN4CC(C(=O)O)C4)c(C(F)(F)F)c3)s2)c2c1CC(C)(C)CC2` [Example 198, 1-(2-(trifluoromethyl)-4-(5-(1,6,6-trimethyl-4,5,6,7-tetrahydro-1H-indazol-3-yl)-1,3,4-thiadiazol-2-yl)phenethyl)azetidine-3-carboxylic Acid], the EC50 was 12 nM.
